Reference: ChEMBL document CHEMBL1141090, “Rational design, synthesis, and characterization of novel inhibitors for human beta1,4-galactosyltransferase” (J Med Chem, 2005)

Experiments:
[1] = biological target: T1, Beta-1,4-galactosyltransferase 1 (Homo sapiens, UniProt P15291); assay: Inhibitory constant against human recombinant Beta-1,4-galactosyltransferase I; N.I. is inactive
T1 sequence (P15291 whole entry): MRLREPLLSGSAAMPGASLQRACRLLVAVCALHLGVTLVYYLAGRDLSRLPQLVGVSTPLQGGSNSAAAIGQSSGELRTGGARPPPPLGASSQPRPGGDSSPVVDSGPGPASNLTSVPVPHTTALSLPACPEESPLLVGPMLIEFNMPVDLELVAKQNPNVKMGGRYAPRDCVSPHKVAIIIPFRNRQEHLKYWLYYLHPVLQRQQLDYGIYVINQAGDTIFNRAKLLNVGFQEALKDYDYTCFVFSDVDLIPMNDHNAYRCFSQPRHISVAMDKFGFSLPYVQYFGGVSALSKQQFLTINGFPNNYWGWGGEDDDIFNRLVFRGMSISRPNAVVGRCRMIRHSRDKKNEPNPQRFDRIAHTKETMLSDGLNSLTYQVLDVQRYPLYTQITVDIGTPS

[2] = biological target: T1, Beta-1,4-galactosyltransferase 1; assay: Inhibitory constant against human Beta-1,4-galactosyltransferase I; N.I. is inactive

Structure (SMILES) | Ki [1] | Ki [2]
O=c1ccn([C@@H]2O[C@H](COP(=O)(O)OP(=O)(O)O[C@H]3O[C@@H](CNCc4cccc5ccccc45)[C@H](O)[C@H](O)[C@@H]3O)[C@@H](O)[C@H]2O)c(=O)[nH]1 | Not Active | –
O=c1ccn([C@@H]2O[C@H](COP(=O)(O)OP(=O)(O)O[C@H]3O[C@@H](CNCCCCCCOCc4ccc5ccccc5c4)[C@H](O)[C@H](O)[C@@H]3O)[C@@H](O)[C@H]2O)c(=O)[nH]1 | – | Not Active
